# Experimental data published in ChEMBL document CHEMBL4627393, “Discovery of Potent, Selective, and State-Dependent NaV1.7 Inhibitors with Robust Oral Efficacy in Pain Models: Structure-Activity Relationship and Optimization of Chroman and Indane Aryl Sulfonamides” (J Med Chem, 2020).
# Assay: Lipophilicity, log D of the compound
# Type: physicochemical
# Details: octanol/water
row,logD,Compound
1,2.1,CN1CCN(c2cc(C(F)(F)F)ccc2[C@H]2CCOc3cc(S(=O)(=O)Nc4nccs4)ccc32)CC1
2,3.6,Cn1nccc1-c1cc(C(F)(F)F)ccc1[C@H]1CCOc2cc(S(=O)(=O)Nc3cccc(F)n3)ccc21
3,2.2,Cn1nccc1-c1cc(C(F)(F)F)ccc1[C@H]1CCOc2cc(S(=O)(=O)Nc3cccnn3)ccc21
4,3.8,Cn1nccc1-c1cc(C(F)(F)F)ccc1[C@H]1CCOc2cc(S(=O)(=O)Nc3ccc(F)cn3)ccc21
5,3,O=S(=O)(Nc1ncc(F)cn1)c1ccc2c(c1)OCC[C@@H]2c1ccc(C(F)(F)F)cc1-c1ccc(F)cn1
6,3.3,O=S(=O)(Nc1nccs1)c1ccc2c(c1)OCC[C@@H]2c1ccc(C(F)(F)F)cc1-c1nccs1
7,3,O=S(=O)(Nc1ccncn1)c1ccc2c(c1)OCC[C@@H]2c1ccc(C(F)(F)F)cc1-c1ccc(F)cn1
8,3.3,O=S(=O)(Nc1nccs1)c1ccc2c(c1)OCC[C@H]2c1ccc(C(F)(F)F)cc1-c1nccs1
9,2.9,Cc1nc(-c2cc(C(F)(F)F)ccc2[C@@H]2CCOc3cc(S(=O)(=O)Nc4nccs4)ccc32)co1
10,4.5,O=S(=O)(Nc1nccs1)c1ccc2c(c1)OCC[C@@H]2c1ccc(C(F)(F)F)cc1-c1ccc(F)cc1
11,2.8,Cc1nc(-c2cc(C(F)(F)F)ccc2[C@H]2CCOc3cc(S(=O)(=O)Nc4ncccn4)ccc32)co1
12,2.5,Cc1ccc(-c2cc(C(F)(F)F)ccc2[C@H]2CCOc3cc(S(=O)(=O)Nc4ncc(F)cn4)ccc32)cn1
13,2.2,Cn1nccc1-c1cc(C(F)(F)F)ccc1[C@@H]1CCOc2cc(S(=O)(=O)Nc3nccs3)ccc21
14,2.9,Cc1nc(-c2cc(C(F)(F)F)ccc2[C@H]2CCOc3cc(S(=O)(=O)Nc4nccs4)ccc32)co1
15,1.8,O=C1COCCN1c1cc(C(F)(F)F)ccc1[C@H]1CCOc2cc(S(=O)(=O)Nc3nccs3)ccc21
16,3.7,Cc1ccc(-c2cc(C(F)(F)F)ccc2[C@H]2CCOc3cc(S(=O)(=O)Nc4cccc(F)n4)ccc32)cn1

row,logD,Compound
1,4,Cc1nc(-c2cc(C(F)(F)F)ccc2[C@H]2CCOc3cc(S(=O)(=O)Nc4cccc(F)n4)ccc32)co1
2,3.2,Cn1nccc1-c1cc(C(F)(F)F)ccc1[C@H]1CCOc2cc(S(=O)(=O)Nc3cc(F)ccn3)ccc21
3,2.3,O=S(=O)(Nc1ccncn1)c1ccc2c(c1)OCC[C@@H]2c1ccc(C(F)(F)F)cc1-c1ccc(F)nc1
4,3,Cc1ccc(-c2cc(C(F)(F)F)ccc2[C@H]2CCOc3cc(S(=O)(=O)Nc4ccncn4)ccc32)cn1
5,2.5,Cn1nccc1-c1cc(C(F)(F)F)ccc1[C@H]1CCOc2cc(S(=O)(=O)Nc3ncc(F)cn3)ccc21
6,3.5,O=S(=O)(Nc1nccs1)c1ccc2c(c1)OCC[C@@H]2c1ccc(C(F)(F)F)cc1-c1ccc(F)cn1
7,2.1,O=C1OCCN1c1cc(C(F)(F)F)ccc1[C@H]1CCOc2cc(S(=O)(=O)Nc3nccs3)ccc21
8,2.5,O=S1(=O)CCN(c2cc(C(F)(F)F)ccc2[C@H]2CCOc3cc(S(=O)(=O)Nc4nccs4)ccc32)CC1
9,2.3,O=S(=O)(Nc1nccs1)c1ccc2c(c1)OCC[C@H]2c1ccc(C(F)(F)F)cc1-n1ccnn1
10,2.9,O=S(=O)(Nc1ncc(F)cn1)c1ccc2c(c1)OCC[C@@H]2c1ccc(C(F)(F)F)cc1-c1ccc(F)nc1
11,2.9,O=S(=O)(Nc1ncccn1)c1ccc2c(c1)OCC[C@@H]2c1ccc(C(F)(F)F)cc1-c1ccc(F)cn1
12,2.8,Cc1nc(-c2cc(C(F)(F)F)ccc2[C@H]2CCOc3cc(S(=O)(=O)Nc4ncc(F)cn4)ccc32)co1
13,1.8,Cn1nccc1-c1cc(C(F)(F)F)ccc1[C@H]1CCOc2cc(S(=O)(=O)Nc3cnccn3)ccc21
14,4.5,O=S(=O)(Nc1nccs1)c1ccc2c(c1)OCC[C@H]2c1ccc(C(F)(F)F)cc1-c1ccc(F)cc1
15,1.8,Cn1nccc1-c1cc(C(F)(F)F)ccc1[C@H]1CCOc2cc(S(=O)(=O)Nc3ccncn3)ccc21
16,1.4,O=S(=O)(Nc1nccs1)c1ccc2c(c1)OCC[C@@H]2c1ccc(C(F)(F)F)cc1N1CCNCC1
